Laboratory results from US11116735B2, “Use of substituted benzylideneguanidine derivatives as synergists for polymyxin antibiotics” (GUANGZHOU INSIGHTER BIOTECHNOLOGY CO., LTD., priority 2015, dated 2021).

Columns and labels:
E. coli 4D-6 = test: MIC by doubling dilution, colistin sulfate-resistant E. coli 4D-6; details: for In vitro minimum inhibitory concentration (MIC) of the substance alone: E. coli 4D-6, colistin sulfate-resistant, derivatives as hydrochlorides; for In vitro MIC of colistin sulfate in the presence of the substituted benzylideneguanidine derivative: E. coli 4D-6, resistant, culture comprised 20.0 ppm of the derivative (hydrochloride)
E. coli 3H-4 = test: MIC by doubling dilution, colistin sulfate-resistant E. coli 3H-4; details: for In vitro minimum inhibitory concentration (MIC) of the substance alone: E. coli 3H-4, colistin sulfate-resistant, derivatives as hydrochlorides; for In vitro MIC of colistin sulfate in the presence of the substituted benzylideneguanidine derivative: E. coli 3H-4, resistant, culture comprised 20.0 ppm of the derivative (hydrochloride)
E. coli 3Y-9 = test: MIC by doubling dilution, colistin sulfate-susceptible E. coli 3Y-9; format: cell-based, Escherichia coli; details: for In vitro minimum inhibitory concentration (MIC) of the substance alone: E. coli 3Y-9, colistin sulfate-susceptible, derivatives as hydrochlorides; for In vitro MIC of colistin sulfate in the presence of the substituted benzylideneguanidine derivative: E. coli 3Y-9, culture comprised 20.0 ppm of the derivative (hydrochloride), colistin sulfate serially diluted
E. coli 3B-24 = test: MIC by doubling dilution, colistin sulfate-susceptible E. coli 3B-24; format: cell-based, Escherichia coli; details: for In vitro minimum inhibitory concentration (MIC) of the substance alone: E. coli 3B-24, colistin sulfate-susceptible, derivatives as hydrochlorides; for In vitro MIC of colistin sulfate in the presence of the substituted benzylideneguanidine derivative: E. coli 3B-24, culture comprised 20.0 ppm of the derivative (hydrochloride), colistin sulfate serially diluted
E. coli 5W-7 = test: MIC by doubling dilution, colistin sulfate-susceptible E. coli 5W-7; format: cell-based, Escherichia coli; details: for In vitro minimum inhibitory concentration (MIC) of the substance alone: E. coli 5W-7, colistin sulfate-susceptible, derivatives as hydrochlorides; for In vitro MIC of colistin sulfate in the presence of the substituted benzylideneguanidine derivative: E. coli 5W-7, culture comprised 20.0 ppm of the derivative (hydrochloride), colistin sulfate serially diluted
weanling piglets = test: Synergy of derivatives and colistin sulfate in the feed for weanling piglets; format: in vivo, Duroc×Landrace×Large crossbred lean weanling piglets; details: creep feed with 20 ppm colistin sulfate and 150 ppm derivative (hydrochloride), ten days
Method: 90 28-day-aged Duroc×Landrace×Large crossbred lean weanling piglets similar in weight were divided into 9 groups, 10 piglets in each group. For each group, colistin sulfate and/or various substituted benzylideneguanidine derivatives were added into the antibiotic-free creep feed. The piglets were given ad libitum access to feed and water during the experiment. Weight gain, feed efficiency and diarrhea rate of each group within ten days were recorded.

E. coli 5F-1 = test: MIC by doubling dilution, colistin sulfate-resistant E. coli 5F-1; details: for In vitro minimum inhibitory concentration (MIC) of the substance alone: E. coli 5F-1, colistin sulfate-resistant, derivatives as hydrochlorides; for In vitro MIC of colistin sulfate in the presence of the substituted benzylideneguanidine derivative: E. coli 5F-1, resistant, culture comprised 20.0 ppm of the derivative (hydrochloride)
E. coli 2S-19 = test: MIC by doubling dilution, colistin sulfate-susceptible E. coli 2S-19; format: cell-based, Escherichia coli; details: for In vitro minimum inhibitory concentration (MIC) of the substance alone: E. coli 2S-19, colistin sulfate-susceptible, derivatives as hydrochlorides; for In vitro MIC of colistin sulfate in the presence of the substituted benzylideneguanidine derivative: E. coli 2S-19, culture comprised 20.0 ppm of the derivative (hydrochloride), colistin sulfate serially diluted
E. coli 2G-7 = test: MIC by doubling dilution, colistin sulfate-resistant E. coli 2G-7; details: for In vitro minimum inhibitory concentration (MIC) of the substance alone: E. coli 2G-7, colistin sulfate-resistant, derivatives as hydrochlorides; for In vitro MIC of colistin sulfate in the presence of the substituted benzylideneguanidine derivative: E. coli 2G-7, resistant, culture comprised 20.0 ppm of the derivative (hydrochloride)

SMILES	In vitro minimum inhibitory concentration (MIC) of the substance alone (E. coli 4D-6) [ppm]	In vitro MIC of colistin sulfate in the presence of the substituted benzylideneguanidine derivative (E. coli 4D-6) [ppm]	In vitro minimum inhibitory concentration (MIC) of the substance alone (E. coli 3H-4) [ppm]	In vitro MIC of colistin sulfate in the presence of the substituted benzylideneguanidine derivative (E. coli 3H-4) [ppm]	In vitro minimum inhibitory concentration (MIC) of the substance alone (E. coli 3Y-9) [ppm]	In vitro MIC of colistin sulfate in the presence of the substituted benzylideneguanidine derivative (E. coli 3Y-9) [ppm]	In vitro minimum inhibitory concentration (MIC) of the substance alone (E. coli 3B-24) [ppm]	In vitro MIC of colistin sulfate in the presence of the substituted benzylideneguanidine derivative (E. coli 3B-24) [ppm]	In vitro minimum inhibitory concentration (MIC) of the substance alone (E. coli 5W-7) [ppm]	In vitro MIC of colistin sulfate in the presence of the substituted benzylideneguanidine derivative (E. coli 5W-7) [ppm]	In vitro minimum inhibitory concentration (MIC) of the substance alone (E. coli 5F-1) [ppm]	In vitro MIC of colistin sulfate in the presence of the substituted benzylideneguanidine derivative (E. coli 5F-1) [ppm]	In vitro minimum inhibitory concentration (MIC) of the substance alone (E. coli 2S-19) [ppm]	In vitro MIC of colistin sulfate in the presence of the substituted benzylideneguanidine derivative (E. coli 2S-19) [ppm]	In vitro minimum inhibitory concentration (MIC) of the substance alone (E. coli 2G-7) [ppm]	In vitro MIC of colistin sulfate in the presence of the substituted benzylideneguanidine derivative (E. coli 2G-7) [ppm]	Average daily weight gain (weanling piglets) [g]	Diarrhea rate (weanling piglets) [%]	Feed conversion ratio (weanling piglets)
N=C(NN=Cc1ccc(OCc2ccccc2)cc1)NN=Cc1ccc(OCc2ccccc2)cc1 [Compound 7]	>800	32	>800	8	>800	2.00	>800	2.00	>800	1.00	>800	8	>800	2.00	>800	8	240	16	1.576
CCCCCCCCOc1ccc(C=NNC(=N)NN=Cc2ccc(OCCCCCCCC)cc2)cc1 [Compound 4]	>800	16	>800	4	>800	1.00	>800	1.00	>800	0.50	>800	8.0	>800	1.00	>800	4.0	239	19	1.532

Now from value to molecule, other results behind:

In vitro minimum inhibitory concentration (MIC) of the substance alone (E. coli 4D-6) [ppm]	In vitro MIC of colistin sulfate in the presence of the substituted benzylideneguanidine derivative (E. coli 4D-6) [ppm]	In vitro minimum inhibitory concentration (MIC) of the substance alone (E. coli 3H-4) [ppm]	In vitro MIC of colistin sulfate in the presence of the substituted benzylideneguanidine derivative (E. coli 3H-4) [ppm]	In vitro minimum inhibitory concentration (MIC) of the substance alone (E. coli 3Y-9) [ppm]	In vitro MIC of colistin sulfate in the presence of the substituted benzylideneguanidine derivative (E. coli 3Y-9) [ppm]	In vitro minimum inhibitory concentration (MIC) of the substance alone (E. coli 3B-24) [ppm]	In vitro MIC of colistin sulfate in the presence of the substituted benzylideneguanidine derivative (E. coli 3B-24) [ppm]	In vitro minimum inhibitory concentration (MIC) of the substance alone (E. coli 5W-7) [ppm]	In vitro MIC of colistin sulfate in the presence of the substituted benzylideneguanidine derivative (E. coli 5W-7) [ppm]	In vitro minimum inhibitory concentration (MIC) of the substance alone (E. coli 5F-1) [ppm]	In vitro MIC of colistin sulfate in the presence of the substituted benzylideneguanidine derivative (E. coli 5F-1) [ppm]	In vitro minimum inhibitory concentration (MIC) of the substance alone (E. coli 2S-19) [ppm]	In vitro MIC of colistin sulfate in the presence of the substituted benzylideneguanidine derivative (E. coli 2S-19) [ppm]	In vitro minimum inhibitory concentration (MIC) of the substance alone (E. coli 2G-7) [ppm]	In vitro MIC of colistin sulfate in the presence of the substituted benzylideneguanidine derivative (E. coli 2G-7) [ppm]	SMILES	Average daily weight gain (weanling piglets) [g]	Diarrhea rate (weanling piglets) [%]	Feed conversion ratio (weanling piglets)
>800	32	>800	8	>800	2.00	>800	2.00	>800	1.00	>800	16	>800	1.00	>800	8	CCC(CC)Oc1ccc(C=NN=C(N)NN=Cc2ccc(OC(CC)CC)cc2)cc1 [Compound 5]	231	25	1.565
>800	16	>800	4	>800	1.00	>800	1.00	>800	0.50	>800	8	>800	1.00	>800	4	N=C(N/N=C/c1ccc(Cl)cc1)N/N=C/c1ccc(Cl)cc1 [Compound 8]	220	33	1.608
>800	4.0	>800	2.0	>800	1.00	>800	1.00	>800	0.50	>800	2.0	>800	1.00	>800	1.0	COc1ccc(C=NN=C(N)NN=Cc2ccc(OC)cc2)cc1 [Compound 1]	243	18	1.529
